From patent publication US10494332B2, “Protein tyrosine phosphatases or SHP2 inhibitors and uses thereof” (Indiana University Research and Technology Corporation, priority 2015, dated 2019)

Tests used:
FAP1 = FAP1 (Homo sapiens, UniProt Q12923); test: PTP inhibition assay (pNPP); type: biochemical; settings: pNPP at Km, pH 7.0, 25° C.; read-out: IC50 FAP1
PTPε = PTPε (Homo sapiens, UniProt P23469); test: PTP inhibition assay (pNPP); type: biochemical
PP5 = target: T1, PP5 (Homo sapiens, UniProt P53041); test: Phosphatase inhibition assay (pNPP)
T1 sequence (P53041 1-499): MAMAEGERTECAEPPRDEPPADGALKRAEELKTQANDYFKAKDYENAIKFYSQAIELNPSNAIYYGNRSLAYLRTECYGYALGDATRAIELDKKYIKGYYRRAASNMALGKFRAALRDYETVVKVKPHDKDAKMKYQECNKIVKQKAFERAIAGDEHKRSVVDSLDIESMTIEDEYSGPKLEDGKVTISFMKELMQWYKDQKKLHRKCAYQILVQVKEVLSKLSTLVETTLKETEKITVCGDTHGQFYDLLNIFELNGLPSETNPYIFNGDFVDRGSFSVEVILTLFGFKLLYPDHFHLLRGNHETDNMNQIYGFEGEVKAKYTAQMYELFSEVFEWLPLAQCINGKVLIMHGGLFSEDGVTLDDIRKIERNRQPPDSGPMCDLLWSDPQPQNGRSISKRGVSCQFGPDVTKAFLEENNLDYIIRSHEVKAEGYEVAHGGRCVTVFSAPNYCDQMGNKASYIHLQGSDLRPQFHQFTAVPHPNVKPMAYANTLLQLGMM

PEST = target: T2, PEST (Homo sapiens, UniProt Q05209); test: PTP inhibition assay (pNPP); type: biochemical; settings: pNPP at Km, pH 7.0, 25° C.; read-out: IC50 PEST
T2 sequence (Q05209 1-780): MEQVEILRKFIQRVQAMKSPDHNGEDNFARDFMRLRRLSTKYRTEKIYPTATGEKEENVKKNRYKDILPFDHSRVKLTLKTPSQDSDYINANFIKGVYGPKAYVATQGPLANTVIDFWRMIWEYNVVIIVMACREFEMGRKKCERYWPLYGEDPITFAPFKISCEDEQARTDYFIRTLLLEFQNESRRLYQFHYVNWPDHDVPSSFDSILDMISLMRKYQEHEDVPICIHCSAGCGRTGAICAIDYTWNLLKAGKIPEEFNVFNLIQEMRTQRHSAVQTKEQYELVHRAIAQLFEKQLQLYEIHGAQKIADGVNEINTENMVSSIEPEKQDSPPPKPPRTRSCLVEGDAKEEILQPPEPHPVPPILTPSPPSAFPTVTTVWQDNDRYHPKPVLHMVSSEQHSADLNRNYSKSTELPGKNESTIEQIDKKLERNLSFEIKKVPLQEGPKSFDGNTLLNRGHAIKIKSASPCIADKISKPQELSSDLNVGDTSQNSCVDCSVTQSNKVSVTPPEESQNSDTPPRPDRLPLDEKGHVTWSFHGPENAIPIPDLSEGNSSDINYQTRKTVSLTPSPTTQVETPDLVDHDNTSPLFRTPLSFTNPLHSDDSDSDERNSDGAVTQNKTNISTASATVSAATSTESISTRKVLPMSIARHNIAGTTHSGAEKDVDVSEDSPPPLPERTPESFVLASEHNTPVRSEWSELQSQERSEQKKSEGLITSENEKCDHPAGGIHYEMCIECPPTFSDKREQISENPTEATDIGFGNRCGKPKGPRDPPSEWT

PTP1B = target: T3, PTP1B (Homo sapiens, UniProt P18031); test: PTP inhibition assay (pNPP); type: biochemical; settings: pNPP at Km, pH 7.0, 25° C.
T3 sequence (P18031 1-435): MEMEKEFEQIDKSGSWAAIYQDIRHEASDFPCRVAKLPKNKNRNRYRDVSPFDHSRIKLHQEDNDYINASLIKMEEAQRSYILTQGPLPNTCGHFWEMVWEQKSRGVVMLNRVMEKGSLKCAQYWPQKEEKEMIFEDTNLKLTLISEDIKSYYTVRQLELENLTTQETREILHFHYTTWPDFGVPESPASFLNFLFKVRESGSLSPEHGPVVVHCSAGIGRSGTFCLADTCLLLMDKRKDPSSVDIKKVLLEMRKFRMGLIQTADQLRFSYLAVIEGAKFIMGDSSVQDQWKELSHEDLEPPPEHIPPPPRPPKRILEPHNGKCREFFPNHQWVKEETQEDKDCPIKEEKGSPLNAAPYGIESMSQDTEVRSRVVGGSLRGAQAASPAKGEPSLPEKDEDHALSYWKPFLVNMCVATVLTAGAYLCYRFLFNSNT

VHR = VHR (Homo sapiens, UniProt P51452); test: PTP inhibition assay (pNPP); type: biochemical; settings: pNPP at Km, pH 7.0, 25° C.
TbPTP1 = TbPTP1 (Trypanosoma brucei brucei, UniProt Q38AT7); test: PTP inhibition assay (pNPP); type: biochemical; settings: pNPP at Km, pH 7.0, 25° C.; read-out: IC50 TbPTP1
PTPβ = PTPβ (Homo sapiens, UniProt P23467); test: PTP inhibition assay (pNPP); type: biochemical
Sequence of PTPβ (P23467 23-1997): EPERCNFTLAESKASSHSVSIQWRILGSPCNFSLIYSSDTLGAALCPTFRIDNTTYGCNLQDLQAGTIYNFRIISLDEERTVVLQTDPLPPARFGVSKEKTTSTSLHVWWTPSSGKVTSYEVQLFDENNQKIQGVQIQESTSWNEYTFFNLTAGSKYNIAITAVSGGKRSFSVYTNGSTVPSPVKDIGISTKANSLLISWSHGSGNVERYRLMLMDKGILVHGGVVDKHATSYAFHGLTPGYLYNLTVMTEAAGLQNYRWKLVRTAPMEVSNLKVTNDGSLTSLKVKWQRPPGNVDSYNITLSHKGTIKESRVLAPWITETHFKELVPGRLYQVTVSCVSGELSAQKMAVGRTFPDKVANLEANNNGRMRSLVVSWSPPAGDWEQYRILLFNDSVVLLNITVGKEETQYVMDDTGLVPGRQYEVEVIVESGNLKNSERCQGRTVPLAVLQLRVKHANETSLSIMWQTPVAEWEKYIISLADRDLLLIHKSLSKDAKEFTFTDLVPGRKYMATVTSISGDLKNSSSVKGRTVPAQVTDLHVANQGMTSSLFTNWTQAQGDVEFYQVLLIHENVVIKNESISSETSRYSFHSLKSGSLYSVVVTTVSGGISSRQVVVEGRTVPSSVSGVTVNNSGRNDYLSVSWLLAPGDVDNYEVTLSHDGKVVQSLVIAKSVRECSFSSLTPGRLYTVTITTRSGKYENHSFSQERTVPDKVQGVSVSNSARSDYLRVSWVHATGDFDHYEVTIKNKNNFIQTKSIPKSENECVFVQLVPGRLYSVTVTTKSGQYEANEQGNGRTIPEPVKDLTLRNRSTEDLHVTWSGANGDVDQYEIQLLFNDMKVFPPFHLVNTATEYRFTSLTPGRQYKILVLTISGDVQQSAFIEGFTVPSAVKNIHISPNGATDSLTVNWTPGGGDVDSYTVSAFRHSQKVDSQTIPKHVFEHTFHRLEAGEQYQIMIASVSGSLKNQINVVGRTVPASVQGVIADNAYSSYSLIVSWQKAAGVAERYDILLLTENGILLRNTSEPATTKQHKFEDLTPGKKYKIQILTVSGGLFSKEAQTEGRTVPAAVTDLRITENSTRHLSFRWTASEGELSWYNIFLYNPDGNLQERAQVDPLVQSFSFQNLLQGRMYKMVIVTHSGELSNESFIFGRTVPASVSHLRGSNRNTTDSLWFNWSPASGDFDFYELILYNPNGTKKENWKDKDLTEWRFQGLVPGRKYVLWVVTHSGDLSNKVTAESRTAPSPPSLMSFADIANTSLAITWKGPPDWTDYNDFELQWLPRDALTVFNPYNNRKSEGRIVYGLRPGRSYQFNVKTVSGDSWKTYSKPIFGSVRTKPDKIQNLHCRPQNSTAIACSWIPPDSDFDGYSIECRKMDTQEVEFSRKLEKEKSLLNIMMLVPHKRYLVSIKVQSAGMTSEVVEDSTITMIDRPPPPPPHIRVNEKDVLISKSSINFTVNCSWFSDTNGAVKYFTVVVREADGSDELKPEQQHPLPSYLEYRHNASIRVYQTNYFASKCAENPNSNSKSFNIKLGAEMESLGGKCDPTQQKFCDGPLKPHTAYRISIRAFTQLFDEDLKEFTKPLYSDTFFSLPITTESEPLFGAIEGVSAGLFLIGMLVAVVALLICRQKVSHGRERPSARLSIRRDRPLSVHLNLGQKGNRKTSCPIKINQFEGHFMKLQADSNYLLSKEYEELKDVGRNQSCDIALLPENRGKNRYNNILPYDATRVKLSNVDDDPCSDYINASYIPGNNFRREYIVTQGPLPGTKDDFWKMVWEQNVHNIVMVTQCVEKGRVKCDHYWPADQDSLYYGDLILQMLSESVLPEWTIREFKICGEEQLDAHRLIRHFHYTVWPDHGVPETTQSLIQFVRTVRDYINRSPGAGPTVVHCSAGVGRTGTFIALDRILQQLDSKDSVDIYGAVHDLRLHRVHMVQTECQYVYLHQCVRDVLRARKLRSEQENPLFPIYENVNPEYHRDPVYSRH

TcPTP = target: T4, TcPTP (Homo sapiens, UniProt P17706); test: PTP inhibition assay (pNPP); type: biochemical; settings: pNPP at Km, pH 7.0, 25° C.; read-out: IC50 TcPTP
T4 sequence (P17706 1-415): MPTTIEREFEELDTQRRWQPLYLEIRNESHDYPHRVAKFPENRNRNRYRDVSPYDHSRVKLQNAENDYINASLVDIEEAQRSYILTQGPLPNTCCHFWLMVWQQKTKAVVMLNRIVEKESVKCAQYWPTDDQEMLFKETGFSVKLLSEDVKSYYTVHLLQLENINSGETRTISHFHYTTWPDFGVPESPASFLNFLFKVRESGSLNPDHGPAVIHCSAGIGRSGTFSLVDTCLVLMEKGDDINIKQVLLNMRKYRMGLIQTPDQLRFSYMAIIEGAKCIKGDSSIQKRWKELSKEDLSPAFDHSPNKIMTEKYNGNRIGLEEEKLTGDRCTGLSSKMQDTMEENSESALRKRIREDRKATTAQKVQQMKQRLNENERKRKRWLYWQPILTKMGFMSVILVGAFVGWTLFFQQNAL

mPTPA = mPTPA (Mycobacterium tuberculosis, UniProt P9WIA1); test: biochemical; settings: IC50 mPTPA

Sequence of FAP1 (Q12923 whole entry): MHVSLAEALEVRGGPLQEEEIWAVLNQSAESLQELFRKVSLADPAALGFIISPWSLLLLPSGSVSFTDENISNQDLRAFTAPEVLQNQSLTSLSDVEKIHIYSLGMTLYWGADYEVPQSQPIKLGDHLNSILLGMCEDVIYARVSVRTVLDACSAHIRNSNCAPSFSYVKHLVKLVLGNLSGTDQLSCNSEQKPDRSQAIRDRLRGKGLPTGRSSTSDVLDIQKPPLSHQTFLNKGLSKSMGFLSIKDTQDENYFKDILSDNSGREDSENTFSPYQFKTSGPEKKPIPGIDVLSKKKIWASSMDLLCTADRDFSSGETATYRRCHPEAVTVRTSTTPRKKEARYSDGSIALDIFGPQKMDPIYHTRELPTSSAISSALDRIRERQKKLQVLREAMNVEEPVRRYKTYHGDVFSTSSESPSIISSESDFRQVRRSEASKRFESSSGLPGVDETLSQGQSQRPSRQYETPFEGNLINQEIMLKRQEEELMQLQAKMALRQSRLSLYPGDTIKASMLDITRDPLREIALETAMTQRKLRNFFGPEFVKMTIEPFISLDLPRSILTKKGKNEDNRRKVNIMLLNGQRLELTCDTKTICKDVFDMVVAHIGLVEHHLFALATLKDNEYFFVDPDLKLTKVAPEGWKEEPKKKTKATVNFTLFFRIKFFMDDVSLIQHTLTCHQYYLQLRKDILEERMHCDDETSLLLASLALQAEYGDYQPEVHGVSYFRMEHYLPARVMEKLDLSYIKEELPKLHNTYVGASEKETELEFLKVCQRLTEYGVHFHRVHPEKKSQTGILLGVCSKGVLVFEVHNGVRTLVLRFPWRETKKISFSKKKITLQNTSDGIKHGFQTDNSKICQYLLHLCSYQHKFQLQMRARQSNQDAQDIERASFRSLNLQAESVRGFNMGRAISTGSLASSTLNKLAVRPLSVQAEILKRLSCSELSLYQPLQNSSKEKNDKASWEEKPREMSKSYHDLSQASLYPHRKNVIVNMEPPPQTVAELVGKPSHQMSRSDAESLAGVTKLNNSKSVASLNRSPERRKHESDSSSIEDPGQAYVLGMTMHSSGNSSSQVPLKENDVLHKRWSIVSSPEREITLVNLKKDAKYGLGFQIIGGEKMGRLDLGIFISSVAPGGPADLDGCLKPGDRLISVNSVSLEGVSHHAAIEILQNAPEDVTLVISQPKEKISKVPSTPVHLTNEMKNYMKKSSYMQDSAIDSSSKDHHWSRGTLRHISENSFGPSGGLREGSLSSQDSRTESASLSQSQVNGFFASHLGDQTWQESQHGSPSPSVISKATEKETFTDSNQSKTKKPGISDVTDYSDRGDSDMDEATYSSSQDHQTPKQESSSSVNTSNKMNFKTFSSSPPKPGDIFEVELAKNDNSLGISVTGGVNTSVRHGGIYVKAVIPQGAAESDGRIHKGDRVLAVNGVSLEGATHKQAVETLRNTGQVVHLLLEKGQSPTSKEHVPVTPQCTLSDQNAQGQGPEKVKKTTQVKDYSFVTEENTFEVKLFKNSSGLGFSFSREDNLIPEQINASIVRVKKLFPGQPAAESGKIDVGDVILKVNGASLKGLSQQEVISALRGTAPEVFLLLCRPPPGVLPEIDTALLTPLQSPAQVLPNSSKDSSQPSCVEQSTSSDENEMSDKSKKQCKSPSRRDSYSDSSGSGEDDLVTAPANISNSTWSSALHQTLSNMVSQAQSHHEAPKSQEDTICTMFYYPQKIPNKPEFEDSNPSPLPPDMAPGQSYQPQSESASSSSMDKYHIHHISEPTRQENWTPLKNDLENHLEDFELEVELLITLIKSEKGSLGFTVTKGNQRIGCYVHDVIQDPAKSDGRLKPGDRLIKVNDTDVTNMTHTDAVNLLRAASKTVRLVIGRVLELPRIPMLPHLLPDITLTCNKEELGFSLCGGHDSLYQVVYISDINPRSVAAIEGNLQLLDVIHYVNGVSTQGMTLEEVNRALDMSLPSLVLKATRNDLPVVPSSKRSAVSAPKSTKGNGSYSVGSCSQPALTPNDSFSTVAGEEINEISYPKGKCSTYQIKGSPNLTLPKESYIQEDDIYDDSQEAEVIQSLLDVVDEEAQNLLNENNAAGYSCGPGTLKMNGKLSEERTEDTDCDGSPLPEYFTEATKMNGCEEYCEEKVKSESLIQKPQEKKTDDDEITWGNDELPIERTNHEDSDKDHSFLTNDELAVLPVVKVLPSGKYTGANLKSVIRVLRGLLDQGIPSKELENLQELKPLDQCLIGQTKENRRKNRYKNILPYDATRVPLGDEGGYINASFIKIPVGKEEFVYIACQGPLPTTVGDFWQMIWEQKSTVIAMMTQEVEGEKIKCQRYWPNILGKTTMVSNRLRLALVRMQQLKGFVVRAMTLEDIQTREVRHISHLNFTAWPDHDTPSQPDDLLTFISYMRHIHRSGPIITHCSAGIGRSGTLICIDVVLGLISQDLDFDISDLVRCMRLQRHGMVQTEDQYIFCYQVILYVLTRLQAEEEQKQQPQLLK
Sequence of PTPε (P23469 20-700): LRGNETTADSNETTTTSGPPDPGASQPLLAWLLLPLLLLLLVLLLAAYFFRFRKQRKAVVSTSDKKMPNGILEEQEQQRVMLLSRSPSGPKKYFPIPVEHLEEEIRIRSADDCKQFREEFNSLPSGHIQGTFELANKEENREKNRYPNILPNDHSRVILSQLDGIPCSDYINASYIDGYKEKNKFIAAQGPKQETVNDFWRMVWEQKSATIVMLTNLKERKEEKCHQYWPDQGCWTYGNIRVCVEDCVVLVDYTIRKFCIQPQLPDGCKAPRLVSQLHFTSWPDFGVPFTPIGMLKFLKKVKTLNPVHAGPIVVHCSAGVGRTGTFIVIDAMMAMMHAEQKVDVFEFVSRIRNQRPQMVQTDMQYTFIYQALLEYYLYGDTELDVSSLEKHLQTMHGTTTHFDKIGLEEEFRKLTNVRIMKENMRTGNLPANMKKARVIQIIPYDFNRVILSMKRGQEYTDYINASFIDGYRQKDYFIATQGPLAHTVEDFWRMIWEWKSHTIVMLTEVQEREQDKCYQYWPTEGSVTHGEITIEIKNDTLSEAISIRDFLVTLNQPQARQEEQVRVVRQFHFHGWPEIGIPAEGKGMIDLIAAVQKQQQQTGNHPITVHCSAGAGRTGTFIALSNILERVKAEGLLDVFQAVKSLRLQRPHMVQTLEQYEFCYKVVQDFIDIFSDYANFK

Compound	IC50 (FAP1) [µM]	IC50 (PTPε) [µM]	IC50 (PP5) [µM]	IC50 (PEST) [µM]	IC50 (PTP1B) [µM]	IC50 (VHR) [µM]	IC50 (TbPTP1) [µM]	IC50 (PTPβ) [µM]	IC50 (TcPTP) [µM]	IC50 (mPTPA) [µM]
O=C(C(c1ccccc1)S(=O)(=O)O)N1CCCC2CCCCC21 (centres unmarked) [Compound L319N53]	76	> 200	> 200	> 200	> 200	> 200	> 200	> 200	> 200	> 200
O=C(CS(=O)(=O)O)Nc1nc2ccccc2s1 [Compound L335N15]	> 100	> 100	> 100	> 100	> 100	> 100	> 100	> 100	> 100	0.263
